The target in one test is human Gal-3 (hGal-3) (Homo sapiens (Human), UniProt P17931). In words: Competitive binding assay: biotinylated hGal-3 binding to microplate-adsorbed asialofetuin (ASF). The note with it: IC50 values from several measurements given as geomean. Put shortly: (§1)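 Biotinylated hGal-3 or hGal-1 (preferably cysteine-free Cys→Ser mutant), 300–1000 ng/mL, competes with compound for ASF-coated wells for 3 h at 4 °C. Bound lectin detected with streptavidin-peroxidase (80 ng/mL, 1 h, 4 °C) and ABTS by absorbance; IC50 reported as geomean of several runs.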

The target in a further test is human Gal-1 (hGal-1) (Homo sapiens, UniProt P09382, C131S/C17S/C43S/C61S/C89S). The test can be described thus: Competitive binding assay: biotinylated hGal-1 binding to microplate-adsorbed asialofetuin (ASF). The note with it: IC50 values from several measurements given as geomean. Put shortly:
as §1

human Gal-3 (hGal-3), sequence (P17931 whole entry): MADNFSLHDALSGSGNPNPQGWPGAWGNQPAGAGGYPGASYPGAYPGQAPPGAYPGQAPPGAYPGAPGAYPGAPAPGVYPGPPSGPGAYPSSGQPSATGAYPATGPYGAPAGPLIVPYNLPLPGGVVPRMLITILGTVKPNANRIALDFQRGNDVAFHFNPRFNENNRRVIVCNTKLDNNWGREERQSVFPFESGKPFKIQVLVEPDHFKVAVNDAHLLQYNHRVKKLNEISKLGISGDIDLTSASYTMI

As usually defined, the IC50 is the concentration needed to halve the response being measured. Turning to `CO[C@@H]1[C@@H](n2cc(-c3ccc(F)c(F)c3F)nn2)[C@@H](O)[C@@H](CO)O[C@@H]1Cn1cc(C2CCCC2)nn1` [Ex 3.2.32.], the IC50 on human Gal-3 (hGal-3) stood at 60 nM; at human Gal-1 (hGal-1) it was 1150 nM.

Turning to `CO[C@@H]1[C@@H](n2cc(-c3ccc(Cl)c(F)c3F)nn2)[C@@H](O)[C@@H](CO)O[C@@H]1Cc1cn(C2[C@H]3CCC[C@@H]23)nn1` (stereo partly shown) [Ex 2.1.20.], the IC50 was determined as 60 nM at human Gal-3 (hGal-3) and 2060 nM on human Gal-1 (hGal-1).

As to `CO[C@@H]1[C@@H](n2cc(-c3ccc(Cl)c(F)c3F)nn2)[C@@H](O)[C@@H](CO)O[C@@H]1Cc1cn(C2(CF)COC2)nn1` [Ex 2.1.52., (2R,3R,4S,5R,6R)-4-(4-(4-chloro-2,3-difluorophenyl)-1H-1,2,3-triazol-1-yl)-6-((1-(3-(fluoromethyl)oxetan-3-yl)-1H-1,2,3-triazol-4-yl)methyl)-2-(hydroxymethyl)-5-methoxytetrahydro-2H-pyran-3-ol [1-(1,2,3-tri-deoxy-2-methoxy-3-[4-(4-chloro-2,3-difluorophenyl)-1H-1,2,3-triazol-1-yl]-α-D-galacto-pyranose)-1-(1-(3-fluoromethyl-3-oxetanyl)-1H-triazol-4-yl)-methane]], the concentration for half-maximal inhibition (IC50) came out at 20 nM on human Gal-3 (hGal-3) and 650 nM on human Gal-1 (hGal-1).

Take `CO[C@@H]1[C@@H](n2cc(-c3ccc(Cl)c(F)c3F)nn2)[C@@H](O)[C@@H](CO)O[C@@H]1Cc1cn(C2CC3(COC3)C2)nn1` [Ex 2.1.16.]: the IC50 at human Gal-3 (hGal-3) amounted to 90 nM; on human Gal-1 (hGal-1), 5930 nM.

Consider `CO[C@@H]1[C@@H](n2cc(-c3ccc(Br)c(F)c3F)nn2)[C@@H](O)[C@@H](CO)O[C@@H]1Cc1cn(C2(C(F)(F)F)COC2)nn1` [Ex 4.1.58.], for which the IC50 came to 20 nM at human Gal-3 (hGal-3) and 1070 nM on human Gal-1 (hGal-1).

For the compound `CO[C@@H]1[C@@H](n2cc(-c3ccc(Cl)c(F)c3F)nn2)[C@@H](O)[C@@H](CO)O[C@@H]1Cc1cn(C2(C(F)(F)F)CCOCC2)nn1` [Ex 2.1.72., (2R,3R,4S,5R,6R)-4-(4-(4-chloro-2,3-difluorophenyl)-1H-1,2,3-triazol-1-yl)-2-(hydroxymethyl)-5-methoxy-6-((1-(4-(trifluoromethyl)tetrahydro-2H-pyran-4-yl)-1H-1,2,3-triazol-4-yl)methyl)tetrahydro-2H-pyran-3-ol], the IC50 at human Gal-3 (hGal-3) was found to be 50 nM; at human Gal-1 (hGal-1), 480 nM.

In the case of `COCC1(n2cc(C[C@H]3O[C@H](CO)[C@H](O)[C@H](n4cc(-c5ccc(F)c(F)c5F)nn4)[C@H]3OC)nn2)CC1` [Ex 3.1.7., (2R,3R,4S,5R,6R)-2-(Hydroxymethyl)-5-methoxy-6-((1-(1-(methoxymethyl)cyclopropyl)-1H-1,2,3-triazol-4-yl)methyl)-4-(4-(2,3,4-trifluorophenyl)-1H-1,2,3-triazol-1-yl)tetrahydro-2H-pyran-3-ol], the IC50 on human Gal-3 (hGal-3) is 120 nM; on human Gal-1 (hGal-1) it was 1200 nM.

With `CO[C@@H]1[C@@H](n2cc(-c3ccc(Cl)c(F)c3F)nn2)[C@@H](O)[C@@H](CO)O[C@@H]1Cc1cn(C23COC(C2)C3)nn1` [Ex 2.1.44.], the figures for the IC50 at human Gal-3 (hGal-3) and at human Gal-1 (hGal-1) were 30 nM and 2100 nM, respectively.

On to `CO[C@@H]1[C@@H](n2cc(-c3ccc(C)c(F)c3F)nn2)[C@@H](O)[C@@H](CO)O[C@@H]1Cn1cc(C2(O)CCCC2)nn1` [Ex 1.2.33.], for which the results for the half-maximal inhibitory concentration (IC50) on human Gal-3 (hGal-3) and on human Gal-1 (hGal-1) were 110 nM and 5700 nM, respectively.

On to `CO[C@@H]1[C@@H](n2cc(-c3ccc(Cl)c(F)c3F)nn2)[C@@H](O)[C@@H](CO)O[C@@H]1Cc1cn(C23CC(C)(C2)C3)nn1` [Ex 2.1.14.], for which the IC50 at human Gal-3 (hGal-3) turned out to be 50 nM; at human Gal-1 (hGal-1), 3450 nM.

For the compound `CO[C@@H]1[C@@H](n2cc(-c3ccc(C)c(F)c3F)nn2)[C@@H](O)[C@@H](CO)O[C@@H]1Cc1cn(C2(CO)CC2)nn1` [Ex 1.1.4.], the half-maximal inhibitory concentration (IC50) worked out at 40 nM on human Gal-3 (hGal-3) and 2570 nM on human Gal-1 (hGal-1).

As for `CO[C@@H]1[C@@H](n2cc(-c3ccc(Cl)c(F)c3F)nn2)[C@@H](O)[C@@H](CO)O[C@@H]1Cn1cc(C2(O)CCCC2)nn1` [Ex 2.2.33.], the figures for the IC50 at human Gal-3 (hGal-3) and on human Gal-1 (hGal-1) were 80 nM and 4780 nM, respectively.

With `CO[C@@H]1[C@@H](n2cc(-c3ccc(Cl)c(F)c3F)nn2)[C@@H](O)[C@@H](CO)O[C@@H]1Cn1cc(C2(C(F)F)CC2)nn1` [Ex 2.2.51.], the IC50 at human Gal-3 (hGal-3) turned out to be 60 nM; on human Gal-1 (hGal-1), 2550 nM.

For the compound `CO[C@@H]1[C@@H](n2cc(-c3ccc(F)c(F)c3F)nn2)[C@@H](O)[C@@H](CO)O[C@@H]1Cc1cn(C2(CCO)COC2)nn1` [Ex 3.1.22.], the figures for the IC50 on human Gal-3 (hGal-3) and on human Gal-1 (hGal-1) were 60 nM and 420 nM, respectively.

For `CO[C@@H]1[C@@H](n2cc(-c3ccc(Cl)c(F)c3F)nn2)[C@@H](O)[C@@H](CO)O[C@@H]1Cc1cn([C@@H]2CCOC[C@@H]2F)nn1` [Example 2.1.66.A, (2R,3R,4S,5R,6R)-4-(4-(4-chloro-2,3-difluorophenyl)-1H-1,2,3-triazol-1-yl)-6-((1-((3R,4R)-3-fluorotetrahydro-2H-pyran-4-yl)-1H-1,2,3-triazol-4-yl)methyl)-2-(hydroxymethyl)-5-methoxytetrahydro-2H-pyran-3-ol], the half-inhibitory concentration (IC50) was 10 nM at human Gal-3 (hGal-3) and 570 nM on human Gal-1 (hGal-1).

On to `CO[C@@H]1[C@@H](n2cc(-c3ccc(F)c(F)c3F)nn2)[C@@H](O)[C@@H](CO)O[C@@H]1Cn1cc(C2(O)CCOCC2)nn1` [Ex 3.2.35.], for which the IC50 at human Gal-3 (hGal-3) was found to be 60 nM; at human Gal-1 (hGal-1), 860 nM.

Take `CO[C@@H]1[C@@H](n2cc(-c3ccc(Cl)c(F)c3F)nn2)[C@@H](O)[C@@H](CO)O[C@@H]1Cc1cn(C2(C(F)F)CCOC2)nn1` (single isomer, unassigned) [Example 2.1.78.A]: the half-inhibitory concentration (IC50) at human Gal-3 (hGal-3) stood at 40 nM; on human Gal-1 (hGal-1), 360 nM.

`CO[C@@H]1[C@@H](n2cc(-c3ccc(Cl)c(F)c3F)nn2)[C@@H](O)[C@@H](CO)O[C@@H]1Cc1cn(C2(C(F)(F)F)CC2)nn1` [Ex 2.1.54., (2R,3R,4S,5R,6R)-4-(4-(4-Chloro-2,3-difluorophenyl)-1H-1,2,3-triazol-1-yl)-2-(hydroxymethyl)-5-methoxy-6-((1-(1-(trifluoromethyl)cyclopropyl)-1H-1,2,3-triazol-4-yl)methyl)tetrahydro-2H-pyran-3-ol]: the IC50 was 30 nM at human Gal-3 (hGal-3) and 700 nM at human Gal-1 (hGal-1).

For the compound `CO[C@@H]1[C@@H](n2cc(-c3ccc(Cl)c(F)c3F)nn2)[C@@H](O)[C@@H](CO)O[C@@H]1Cn1cc(C2(C(F)(F)F)CC2)nn1` [Ex 2.2.54.], the IC50 was 70 nM at human Gal-3 (hGal-3) and 2460 nM at human Gal-1 (hGal-1).

Take `CO[C@@H]1[C@@H](n2cc(-c3ccc(Br)c(F)c3F)nn2)[C@@H](O)[C@@H](CO)O[C@@H]1Cc1cn(C23CC(OC)(C2)C3)nn1` [Ex 4.1.29.]: the IC50 at human Gal-3 (hGal-3) came to 50 nM; at human Gal-1 (hGal-1) it was 3630 nM.

Take `CO[C@@H]1[C@@H](n2cc(-c3ccc(F)c(F)c3F)nn2)[C@@H](O)[C@@H](CO)O[C@@H]1Cc1cn(C2(CF)CC2)nn1` [Ex 3.1.46., (2R,3R,4S,5R,6R)-6-((1-(1-(fluoromethyl)cyclopropyl)-1H-1,2,3-triazol-4-yl)methyl)-2-(hydroxymethyl)-5-methoxy-4-(4-(2,3,4-trifluorophenyl)-1H-1,2,3-triazol-1-yl)tetrahydro-2H-pyran-3-ol]: the concentration for half-maximal inhibition (IC50) came to 70 nM on human Gal-3 (hGal-3) and 400 nM on human Gal-1 (hGal-1).

Turning to `CO[C@@H]1[C@@H](n2cc(-c3ccc(Br)c(F)c3F)nn2)[C@@H](O)[C@@H](CO)O[C@@H]1Cc1cn(C2(C)CC(F)(F)C2)nn1` [Ex 4.1.15.], the 50% inhibitory concentration (IC50) at human Gal-3 (hGal-3) is 50 nM; on human Gal-1 (hGal-1), 2410 nM.

In the case of `CO[C@@H]1[C@@H](n2cc(-c3ccc(Br)c(F)c3F)nn2)[C@@H](O)[C@@H](CO)O[C@@H]1Cc1cn(C2(C)CC2)nn1` [Ex 4.1.23.], the figures for the concentration for half-maximal inhibition (IC50) at human Gal-3 (hGal-3) and at human Gal-1 (hGal-1) were 30 nM and 1800 nM, respectively.

Consider `CO[C@@H]1[C@@H](n2cc(-c3ccc(Cl)c(F)c3F)nn2)[C@@H](O)[C@@H](CO)O[C@@H]1Cc1cn(C2(C(F)F)COC2)nn1` [Ex 2.1.53., (2R,3R,4S,5R,6R)-4-(4-(4-chloro-2,3-difluorophenyl)-1H-1,2,3-triazol-1-yl)-6-((1-(3-(difluoromethyl)oxetan-3-yl)-1H-1,2,3-triazol-4-yl)methyl)-2-(hydroxymethyl)-5-methoxytetrahydro-2H-pyran-3-ol [1-(1,2,3-tri-deoxy-2-methoxy-3-[4-(4-chloro-2,3-difluorophenyl)-1H-1,2,3-triazol-1-yl]-α-D-galacto-pyranose)-1-(1-(3-difluoromethyl-3-oxetanyl)-1H-triazol-4-yl)-methane]], for which the IC50 at human Gal-3 (hGal-3) is 20 nM; at human Gal-1 (hGal-1), 420 nM.

Consider `CO[C@@H]1[C@@H](n2cc(-c3ccc(C#N)c(F)c3F)nn2)[C@@H](O)[C@@H](CO)O[C@@H]1Cc1cn(C2(C)COC2)nn1` [Ex 5.1.6.], for which the half-maximal inhibitory concentration (IC50) at human Gal-3 (hGal-3) came out at 70 nM; on human Gal-1 (hGal-1) it was 3990 nM.

Regarding `CO[C@@H]1[C@@H](n2cc(-c3ccc(F)c(F)c3F)nn2)[C@@H](O)[C@@H](CO)O[C@@H]1Cc1cn([C@]2(C)C[C@@H](O)C2)nn1` [Ex 3.1.27.], the results for the IC50 at human Gal-3 (hGal-3) and at human Gal-1 (hGal-1) were 30 nM and 140 nM, respectively.

`CO[C@@H]1[C@@H](n2cc(-c3ccc(Cl)c(F)c3F)nn2)[C@@H](O)[C@@H](CO)O[C@@H]1Cc1cn(C(C)(C)CF)nn1` [Ex 2.1.45.]: the IC50 on human Gal-3 (hGal-3) came out at 40 nM; at human Gal-1 (hGal-1) it was 1490 nM.

Regarding `CO[C@@H]1[C@@H](n2cc(-c3ccc(Br)c(F)c3F)nn2)[C@@H](O)[C@@H](CO)O[C@@H]1Cc1cn(C(C)(C)C(F)F)nn1` [Ex 4.1.28.], the IC50 at human Gal-3 (hGal-3) worked out at 50 nM; on human Gal-1 (hGal-1), 1020 nM.

With `CO[C@@H]1[C@@H](n2cc(-c3ccc(Cl)c(F)c3F)nn2)[C@@H](O)[C@@H](CO)O[C@@H]1Cc1cn(C23CCC(N)(CC2)CC3)nn1` [Ex 2.2.39.], the IC50 turned out to be 70 nM on human Gal-3 (hGal-3) and 6070 nM at human Gal-1 (hGal-1).

(Values after US20240109930A1, “TRIAZOLYL-METHYL SUBSTITUTED ALPHA-D-GALACTOPYRANOSIDE DERIVATIVES” (Idorsia Pharmaceuticals Ltd, priority 2021, published 2024).)
